SMILES strings stand for the structures. Entries after “also recorded” stand apart in the source; their conditions may differ. Like-named read-outs stand apart in the source and are kept apart here.

For data set [1], the system named is intracellular amastigote forms of Leishmania (L.) infantum. The experiment in a line: Activity against L. (L.) infantum intracellular amastigotes in infected peritoneal macrophages. The following applies: for SI (selectivity index): CC50 NCTC cells/IC50 parasites; for IC50 / IC50 L. (L.) infantum: 96 h; for IC50: read-out: IC50 L. (L.) infantum. The data set is classed as cell-based. How it is done: L. (L.) infantum (MHOM/BR/1972/LD) was maintained through successive passages in golden hamsters up to 60–70 days post-infection. Amastigotes were harvested from spleens of infected hamsters by differential centrifugation.
(§1) Macrophages were collected from the peritoneal cavity of female BALB/c mice by washing with RPMI-1640 without phenol red, supplemented with 10% FBS at 37 °C in a humidified atmosphere containing 5% CO2. NCTC (clone 929) cells were maintained in RPMI-1640 (without phenol red and supplemented with 10% FBS) at 37 °C in the same conditions of the peritoneal macrophages.
The 50% inhibitory concentrations (IC50) against intracellular amastigotes for tested compounds were determined in infected macrophages. Peritoneal macrophages were obtained as described in the Section 3.6.3, and L. (L.) infantum amastigotes were obtained from spleens of infected hamsters by differential centrifugation. Peritoneal macrophages were seeded at 1 × 10^5 cells per well in Nunc™ 16-well slide chambers (Aldrich, St. Louis, MO, USA) for 24 h at 37 °C in a 5% CO2-humidified incubator. Next, amastigotes were isolated from a spleen of an infected hamster as described, counted, seeded at a 1:10 macrophages/amastigotes ratio, and incubated for 24 h. Non-internalized parasites were removed by washing twice with a culture medium. Then, the macrophages were incubated with compounds or standard drug (miltefosine) in a range of 100 to 0.78 μM for 96 h at 37 °C in a 5% CO2-humidified incubator, using miltefosine as a standard drug. At the end of the assay, the cells were fixed in methanol, stained with Giemsa, and observed under a digital light microscope (EVOS M5000, Thermo, Waltham, MA, USA) to determine the number of infected macrophages out of 400 cells.
(§2) The data obtained represent the mean and standard deviation of duplicate samples from at least three independent assays. IC50 and CC50 values were calculated using sigmoid dose–response curves in Graph Pad Prism 5.0 software (GraphPad Software, San Diego, CA, USA).

A short description of data set [2]: Cytotoxicity against mammalian cells (MTT assay). It counts as cell-based. The following applies: mouse, NCTC clone 929 cells, highest concentration 200 μM. How it is done:
as §1
The 50% cytotoxic concentration (CC50) was determined in NCTC clone 929 cells. NCTC cells were seeded at 6 × 10^4 cells/well in 96-well microplates and incubated with serial dilutions of the tested compounds or standard drug (miltefosine) to the highest concentration of 200 μM for 48 h at 37 °C in a 5% CO2-humidified incubator. An MTT assay determined the viability of the cells at 570 nm. The selectivity index (SI) was determined considering the following equation: CC50 NCTC cells/IC50 parasites.
as §2

[3] abbreviates: Peritoneal macrophage, intracellular amastigotes in BALB/c peritoneal macrophages, 100 to 0.78 μM, NA: non-active.
Setting [4] is: intracellular amastigotes in BALB/c peritoneal macrophages, 100 to 0.78 μM, NA: non-active.

`C=CCCCCCCC#CCCCCCCCCCC[C@@H]1C(=O)O[C@H](C)[C@@H]1OC(C)=O` [Compound 1a, (2S,3R,4R)-3-Acetoxy-4-methyl-2-(n-eicos-11′-yn-19′-enil)butanolide]: the “SI (selectivity index)” value in data set [1] is >4.6. In addition, the IC50 in data set [1] (setting [3]) turned out to be 43.3 µM; in data set [1] (setting [4]) it was 43.4 ± 3.9 µM. For the same compound, the CC50 at 48 h in data set [2] was > 200 µM.
Consider `CCCCCCCCCCCCCCCCCCCCC1C(=O)OC(C)C1OC(C)=O` [Compound 3a, (2S,3R,4R)-3-Acetoxy-4-methyl-2-(n-eicosanil)butanolide], for which, in data set [1] (setting [4]), the “IC50 L. (L.) infantum” value was “lack of activity; also recorded: no activity”. Besides, the CC50 at 48 h in data set [2] was > 200 µM.
Consider `CCCCCCCCC#CCCCCCCCCCC[C@@H]1C(=O)O[C@H](C)[C@@H]1O` [Compound 2, (2S,3R,4R)-3-hydroxy-4-methyl-2-(n-eicos-11′-ynyl)butanolide], for which the IC50 in data set [1] (setting [3]) is > 100 µM. The “IC50 L. (L.) infantum” value in data set [1] (setting [4]) is “inactive”. For the same compound, in data set [2], the CC50 at 48 h was > 200 µM.
Turning to `CCCCCCCCCCCCCCCCOP(=O)([O-])OCC[N+](C)(C)C` [Miltefosine, reference compound], the “SI (selectivity index)” value in data set [1] is 6.5. Further, the IC50 in data set [1] (setting [3]) is 17.8 ± 1.4 µM. In data set [2], this compound had a CC50 at 48 h of 116 ± 5.3 µM.
`CCCCCCCCCCCCCCCCCCCCC1C(=O)OC(C)C1O` [Compound 3, (2S,3R,4R)-3-Hydroxy-4-methyl-2-(n-eicosanil)butanolide]: the IC50 in data set [1] (setting [3]) is > 100 µM. For the same compound, the “IC50 L. (L.) infantum” value in data set [1] (setting [4]) is listed as “lack of activity; also recorded: no activity”. The CC50 at 48 h in data set [2] is > 200 µM.
With `C=CCCCCCCC#CCCCCCCCCCC[C@@H]1C(=O)O[C@H](C)[C@@H]1O` [Compound 1, (2S,3R,4R)-3-hydroxy-4-methyl-2-(n-eicos-11′-yn-19′-enyl)butanolide], the “SI (selectivity index)” value in data set [1] is on record as >6.7. Further, the IC50 in data set [1] (setting [3]) was found to be 29.9 ± 9.7 µM. Moreover, in data set [2], the 50% cytotoxic concentration (CC50) at 48 h is > 200 µM.
With `C=CCCCCCCC#CCCCCCCCCCCC1=C[C@@H](C)OC1=O` [Compound 1b, 4R-Methyl-2-(n-eicos-11′-yn-19′-enil)but-2-enolide], the “SI (selectivity index)” value in data set [1] is reported as >8.6. For the same compound, the IC50 in data set [1] (Peritoneal macrophage) worked out at 23.1 ± 5.4 µM. The CC50 at 48 h in data set [2] is > 200 µM.
In the case of `CCCCCCCCC#CCCCCCCCCCCC1=C[C@@H](C)OC1=O` [Compound 2b, 4R-Methyl-2-(n-eicos-11′-ynil)but-2-enolide], the “IC50 L. (L.) infantum” value in data set [1] (setting [4]) is on record as “no activity”. Besides, the CC50 at 48 h in data set [2] is > 200 µM.
For `CCCCCCCCCCCCCCCCCCCCC1=C[C@@H](C)OC1=O` [Compound 3b, 4R-Methyl-2-(n-eicosanil)but-2-enolide], the “IC50 L. (L.) infantum” value in data set [1] (setting [4]) is “lack of activity; also recorded: no activity”. In addition, the CC50 at 48 h in data set [2] was > 200 µM.
For `CCCCCCCCC#CCCCCCCCCCC[C@@H]1C(=O)O[C@H](C)[C@@H]1OC(C)=O` [Compound 2a, (2S,3R,4R)-3-Acetoxy-4-methyl-2-(n-eicos-11′-ynil)butanolide], in data set [1] (setting [4]), the “IC50 L. (L.) infantum” value is recorded as “no activity”. In addition, the CC50 at 48 h in data set [2] was > 200 µM.

The values above are taken from paper PMC8838408, “Antileishmanial Effects of Acetylene Acetogenins from Seeds of Porcelia macrocarpa (Warm.) R.E. Fries (Annonaceae) and Semisynthetic Derivatives” (Molecules, 2022).
